From patent publication US20230010375A1, “ANTI-VIRAL COMPOSITION” (priority 2020, published 2023)

Test system: COVID-19
Details: human, in vivo

## O=C([O-])O.[Na+] [bicarbonate of soda, sodium bicarbonate]
  second swab test (Covid-19): non-conclusive
  third swab test (Covid-19): negative
po
  symptoms after the first 2/3rds of a dose: no symptoms
